Measurements published in US20130183268A1, “DRUG COMBINATIONS WITH FLUORO-SUBSTITUTED OMEGA-CARBOXYARYL DIPHENYL UREA FOR THE TREATMENT AND PREVENTION OF DISEASES AND CONDITIONS” (BAYER HEALTHCARE LLC, priority 2010, published 2013).
pIC50: −log10 of the molar value.

Legend:
[1] = biological target: T1, p38 α2 (Homo sapiens, UniProt Q16539); experiment: p38 kinase in vitro assay; format: biochemical; conditions: in words
T1 construct: His; made in house; host or cells: E. coli
Experimental: Purified and His-tagged p38 α2 (expressed in E. Coli) was activated in vitro by MMK-6 to a high specific activity. Using a microtiter format, all reactions were conducted in 100 μL volumes with reagents diluted to yield 0.05 μg/well of activated p38 α2 and 10 μg/well of myelin basic protein in assay buffer (25 mM HEPES 7.4, 20 mM MgCl2, 150 mM NaCl). Test compounds (5 μL of a 10% DMSO solution in water) were prepared and diluted into the assay to cover a final concentration range from 5 nM to 2.5 μM. The kinase assay was initiated by addition of 25 μL of an ATP cocktail to give a final concentration of 10 μM cold ATP and 0.2 μCi [gamma-^33P] ATP per well (200-400 dpm/pmol of ATP). The plate was incubated at 32° C. for 35 min., and the reaction quenched with 7 μL of a 1 N aq HCl solution. The samples were harvested onto a P30 Filtermat (Wallac, Inc.) using a TomTec 1295 Harvester (Wallac, Inc.), and counted in a LKB 1205 Betaplate Liquid Scintillation Counter (Wallac, Inc.). Negative controls included substrate plus ATP alone. SW1353 cellular assay: SW1353 cells (human chondro-sarcoma) are seeded (1000 cells/100 μL DMEM 10% FCS/well) into 96-well plates and incubated overnight. […] Cultures are incubated for 48 h at 37° C., then supernatant IL-6 values are determined by ELISA.

[2] = Metabolite profile, incubation of [14C]regorafenib with liver microsomes (mouse); format: in vitro ADME, NMRI mouse; conditions: [14C]regorafenib 20 μM, liver microsomes 0.5 mg/mL, 60 min
Experimental: N-oxide (M-2), hydroxymethyl (M-3), de-methylated (M-4) and N-oxide-demethylated (M-5) metabolites of the fluoro-substituted diaryl urea of Formula (I) are shown below. They were identified as metabolites of regorafenib in vitro upon incubation with liver enzymes of various mammalian species (man, dog, rat, mouse). Studies reveal that its metabolites show high protein binding in man and animal species (data not shown). [table]

[3] = tested on: PDGFR-beta phosphorylation in aortic smooth muscle cells; experiment: pPDGFR-beta sandwich ELISA in AoSMC cells; format: cell-based; conditions: PDGF-BB stimulated
Experimental: 100K P3-P6 Aortic SMC were plated in each well of 12-well cluster in 1000 μL volume/well of SGM-2 using standard cell culture techniques. Next day, cells were rinsed with 1000 μL D-PBS once, then serum starved in 500 μL SBM (smooth muscle cell basal media) with 0.1% BSA overnight. Compounds were diluted at a dose range from (10 μM to 1 nM in 10-fold dilution steps in DMSO. Final DMSO concentration 0.1%). Remove old media by inversion into the sink quickly then add 100 μL of each dilution to corresponding well of cells for 1 h at 37° C. Cells were then stimulated with 10 ng/mL PDGF-BB ligand for 7 min at 37° C. The media is decanted and 150 μL of isotonic lysis buffer with protease inhibitor tablet (Complete; EDTA-free) and 0.2 mM Na vanadate is added. Cells are lysed for 15 min at 4° C. on shaker in cold room. […]
Table 2 illustrates the results of two cellular assays for raf kinase activity, which are (i) inhibition of pERK in MDA-MB231 cells, a mechanistic readout of raf kinase activity, and (ii) a proliferation assay of MDA-MB231 cells, a functional assay of raf kinase activity. In addition, Table 2 illustrates the results of PDGFR driven phosphorylation of PDGFR-beta in aortic smooth muscle cells, which is a mechanistic readout of PDGFR kinase inhibition.

[4] = Pharmacokinetics in patients after 160 mg regorafenib co-precipitate tablet; conditions: analyte in plasma, 160 mg regorafenib co-precipitate tablet daily, day 21, n = 9, geometric mean
[5] = biological target: mouse PDGFR (Mus musculus, UniProt P05622); experiment: Murine PDGFR FRET biochemical assay; conditions: in words
Chain of mouse PDGFR (P05622 553-1098 limits assumed): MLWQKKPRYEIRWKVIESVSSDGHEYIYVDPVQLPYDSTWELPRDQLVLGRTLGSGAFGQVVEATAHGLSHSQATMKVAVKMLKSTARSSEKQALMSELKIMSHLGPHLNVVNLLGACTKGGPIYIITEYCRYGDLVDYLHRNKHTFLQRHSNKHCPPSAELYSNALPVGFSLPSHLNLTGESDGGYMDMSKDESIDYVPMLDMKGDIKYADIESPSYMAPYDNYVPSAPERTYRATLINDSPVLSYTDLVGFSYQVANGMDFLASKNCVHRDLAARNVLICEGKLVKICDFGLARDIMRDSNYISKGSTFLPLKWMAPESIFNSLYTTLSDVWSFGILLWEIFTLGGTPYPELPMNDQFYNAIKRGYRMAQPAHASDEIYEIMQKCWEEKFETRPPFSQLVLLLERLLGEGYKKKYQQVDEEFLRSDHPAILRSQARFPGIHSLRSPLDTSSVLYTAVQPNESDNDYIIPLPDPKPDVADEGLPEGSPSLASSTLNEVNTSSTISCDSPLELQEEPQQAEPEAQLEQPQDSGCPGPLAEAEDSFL
Experimental: This assay was formatted in a 96-well black plate (Costar 3915). The following reagents are used: Europium-labeled anti-phosphotyrosine antibody pY20 (Perand streptavidin-APC; poly GT-biotin from, and mouse PDGFR. The reaction conditions are as follows: 1 nM mouse PDGFR is combined with 20 μM ATP, 7 nM poly GT-biotin, 1 nM pY20 antibody, 5 nM streptavidin-APC, and 1% DMSO in assay buffer (50 mM HEPES pH 7.5, 10 mM MgCl2, 0.1 mM EDTA, 0.015% BRIJ 35, 0.1 mg/mL BSA, 0.1% mercaptoethanol). Reaction is initiated upon addition of enzyme. Final reaction volume in each well is 100 μL. After 90 minutes, the reaction is stopped by addition of 10 μL/well of 5 μM staurosporine. Plates are read at both 615 and 665 nm on a Perkin Elmer VictorV Multilabel counter at about 1 hour after the reaction is stopped. Signal is calculated as a ratio: (665 nm/615 nm)*10000 for each well.
(§1) For IC50 generation for both PDGFR and Flk-1, compounds were added prior to the enzyme initiation. A 50-fold stock plate was made with compounds serially diluted 1:3 in a 50% DMSO/50% dH2O solution. […] The data were expressed as percent inhibition: % inhibition=100−((Signal with inhibitor-background)/(Signal without inhibitor-background))*100

[6] = biological target: T2, Flk-1 (murine VEGFR-2) (Mus musculus, UniProt P35918); experiment: Flk-1 (murine VEGFR-2) biochemical assay (TR-FRET); conditions: in words
T2 construct: 7 nM Flk-1 (kinase domain)
T2 sequence (P35918 832-1160 limits assumed): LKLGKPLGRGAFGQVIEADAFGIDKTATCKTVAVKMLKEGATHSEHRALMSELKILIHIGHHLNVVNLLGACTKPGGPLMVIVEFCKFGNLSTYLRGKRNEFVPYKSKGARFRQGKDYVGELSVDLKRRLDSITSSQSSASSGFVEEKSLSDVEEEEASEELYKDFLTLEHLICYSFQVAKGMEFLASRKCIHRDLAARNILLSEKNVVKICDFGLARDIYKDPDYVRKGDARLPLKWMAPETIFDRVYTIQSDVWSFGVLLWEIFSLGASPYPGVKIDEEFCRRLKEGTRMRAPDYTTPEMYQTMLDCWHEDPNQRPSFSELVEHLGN
Experimental: This assay was performed in 96-well opaque plates (Costar 3915) in the TR-FRET format. Reaction conditions are as follows: 10 μM ATP, 25 nM poly GT-biotin, 2 nM Eu-labelled phospho-Tyr Ab, 10 nM APC, 7 nM Flk-1 (kinase domain), 1% DMSO, 50 mM HEPES pH 7.5, 10 mM MgCl2, 0.1 mM EDTA, 0.015% BRIJ, 0.1 mg/mL BSA, 0.1% mercapto-ethanol). Reaction is initiated upon addition of enzyme. Final reaction volume in each well is 100 μL. Plates are read at both 615 and 665 nM on a Perkin Elmer Victor V Multilabel counter at about 1.5-2.0 hours after reaction initiation. Signal is calculated as a ratio: (665 nm/615 nm)*10000 for each well.
as §1

T1 sequence (Q16539 whole entry): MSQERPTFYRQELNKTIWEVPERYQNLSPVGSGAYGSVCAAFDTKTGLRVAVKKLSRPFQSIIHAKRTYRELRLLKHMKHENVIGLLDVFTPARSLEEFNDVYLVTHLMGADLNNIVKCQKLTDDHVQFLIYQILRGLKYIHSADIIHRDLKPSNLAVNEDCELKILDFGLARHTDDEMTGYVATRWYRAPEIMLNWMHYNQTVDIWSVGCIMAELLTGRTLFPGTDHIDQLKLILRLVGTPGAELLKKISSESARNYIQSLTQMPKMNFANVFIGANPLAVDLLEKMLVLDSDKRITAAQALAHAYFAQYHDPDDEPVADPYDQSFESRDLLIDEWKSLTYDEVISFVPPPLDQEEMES

CNC(=O)c1cc(Oc2ccc(NC(=O)Nc3ccc(Cl)c(C(F)(F)F)c3)c(F)c2)ccn1 [Example 1, 4{4-[3-(4-chloro-3-trifluoromethylphenyl)-ureido]-3-fluorophenoxy}-pyridine-2-carboxylic acid methylamide]
inhibition of p38 kinase [1]: significant inhibition | % of radioactivity, NMRI mouse [2]: 57.8% | pIC50 [3]: 7.36 | AUC Day 21 [4]: 61500 ng·h/mL | Cmax Day 21 [4]: 4170 ng/mL | inhibition of PDGFR kinase [5]: significant inhibition | inhibition of VEGFR2 kinase [6]: significant inhibition
